Assay results from BigSolDB 2.1.

Details: in water

O=S(=O)([O-])c1cccc2ccccc12.[Na+]
Details	solubility (mole fraction)
278.15 K	0.0107
283.15 K	0.0109
288.15 K	0.0113
293.15 K	0.0119
298.15 K	0.0126
303.15 K	0.0134
308.15 K	0.0141
313.15 K	0.0152
318.15 K	0.0169
323.15 K	0.0192
